Test results from publication PMC5218480 (PLoS ONE, 2017).

System: MV-4-11 cells
Experiment: Gene expression microarray analysis (Affymetrix PrimeView) and GSEA
Type: cell-based, human
Set-up: RFU PODN (11730768_x_at) / Fold change /veh PODN (11730768_x_at) / RFU LINC00158 (11744669_a_at) / Fold change /veh LINC00158 (11744669_a_at) / RFU DUSP10 (11751237_a_at) / Fold change /veh DUSP10 (11751237_a_at) / RFU ID3 (11757404_x_at) / Fold change /veh ID3 (11757404_x_at) / RFU PLEKHG5 (11737974_s_at) / Fold change /veh PLEKHG5 (11737974_s_at) / RFU LRRC4B (11730491_at) / Fold change /veh LRRC4B (11730491_at) / RFU GIMAP4 (11747438_a_at) / Fold change /veh GIMAP4 (11747438_a_at) / RFU KRT8 (11758183_x_at) / Fold change /veh KRT8 (11758183_x_at) / RFU CNN1 (11734310_a_at) / Fold change /veh CNN1 (11734310_a_at) / RFU VPS37D (11726825_at) / Fold change /veh VPS37D (11726825_at) / RFU C10orf10 (11716522_x_at) / Fold change /veh C10orf10 (11716522_x_at) / RFU KIR2DL2 /// KIR2DL4 /// KIR2DL5A /// KIR2DL5B /// KIR2DS1 /// KIR2DS2 /// KIR2DS3 /// KIR2DS4 /// KIR3DL3 /// KIR3DL3 /// KIR3DS1 (11738374_at) / Fold change /veh KIR2DL2 /// KIR2DL4 /// KIR2DL5A /// KIR2DL5B /// KIR2DS1 /// KIR2DS2 /// KIR2DS3 /// KIR2DS4 /// KIR3DL3 /// KIR3DL3 /// KIR3DS1 (11738374_at) / RFU C1QL1 (11718748_at) / Fold change /veh C1QL1 (11718748_at) / RFU TMPRSS4 (11747572_a_at) / Fold change /veh TMPRSS4 (11747572_a_at) / RFU HAMP (11756126_x_at) / Fold change /veh HAMP (11756126_x_at) / RFU RNFT2 (11725882_a_at) / Fold change /veh RNFT2 (11725882_a_at) / RFU NR4A2 (11747474_a_at) / Fold change /veh NR4A2 (11747474_a_at) / RFU ABCC12 (11746883_a_at) / Fold change /veh ABCC12 (11746883_a_at) / RFU TMEM136 (11760407_x_at) / Fold change /veh TMEM136 (11760407_x_at) / RFU CLDN22 /// WWC2 (11732394_at) / Fold change /veh CLDN22 /// WWC2 (11732394_at) / RFU HLA-DPB1 (11760878_x_at) / Fold change /veh HLA-DPB1 (11760878_x_at) / RFU SPINT1 (11716480_a_at) / Fold change /veh SPINT1 (11716480_a_at) / RFU GAP43 (11754022_s_at) / Fold change /veh GAP43 (11754022_s_at) / RFU A4GNT (11735810_at) / Fold change /veh A4GNT (11735810_at) / RFU PRB3 (11715151_x_at) / Fold change /veh PRB3 (11715151_x_at) / RFU TUBB4B (11761932_at) / Fold change /veh TUBB4B (11761932_at) / RFU CAPN14 (11732068_a_at) / Fold change /veh CAPN14 (11732068_a_at) / RFU TMCC2 (11721928_a_at) / Fold change /veh TMCC2 (11721928_a_at) / RFU IRGQ (11745062_a_at) / Fold change /veh IRGQ (11745062_a_at) / RFU FAM174B (11720279_a_at) / Fold change /veh FAM174B (11720279_a_at) / RFU TMPRSS4 (11748680_a_at) / Fold change /veh TMPRSS4 (11748680_a_at) / RFU FAM212B (11763350_a_at) / Fold change /veh FAM212B (11763350_a_at) / RFU PLEKHG5 (11743358_a_at) / Fold change /veh PLEKHG5 (11743358_a_at) / RFU ZSCAN30 (11745921_a_at) / Fold change /veh ZSCAN30 (11745921_a_at) / RFU CMKLR1 (11741424_a_at) / Fold change /veh CMKLR1 (11741424_a_at) / RFU LOC101060620 /// MAPK8IP1 (11723275_at) / Fold change /veh LOC101060620 /// MAPK8IP1 (11723275_at) / RFU SPTSSB (11747773_x_at) / Fold change /veh SPTSSB (11747773_x_at) / RFU PRSS12 (11739890_at) / Fold change /veh PRSS12 (11739890_at) / RFU BIN1 (11741810_x_at) / Fold change /veh BIN1 (11741810_x_at) / RFU WNT11 (11732464_a_at) / Fold change /veh WNT11 (11732464_a_at) / RFU C10orf10 (11716521_a_at) / Fold change /veh C10orf10 (11716521_a_at) / RFU C5orf56 (11738089_at) / Fold change /veh C5orf56 (11738089_at) / RFU CYB561 (11721691_x_at) / Fold change /veh CYB561 (11721691_x_at) / RFU ANKRD19P (11752326_a_at) / Fold change /veh ANKRD19P (11752326_a_at) / RFU OR2T12 /// OR2T33 /// OR2T8 (11738714_s_at) / Fold change /veh OR2T12 /// OR2T33 /// OR2T8 (11738714_s_at) / RFU VCAN (11748164_a_at) / Fold change /veh VCAN (11748164_a_at) / RFU JSRP1 (11732532_at) / Fold change /veh JSRP1 (11732532_at) / RFU KRTAP10-11 (11738290_x_at) / Fold change /veh KRTAP10-11 (11738290_x_at) / RFU MYO3A (11730013_a_at) / Fold change /veh MYO3A (11730013_a_at) / RFU EBF3 (11725865_a_at) / Fold change /veh EBF3 (11725865_a_at) / RFU CAMK2N1 (11719241_x_at) / Fold change /veh CAMK2N1 (11719241_x_at) / RFU C5orf56 (11738088_a_at) / Fold change /veh C5orf56 (11738088_a_at) / RFU OLFML3 (11715873_a_at) / Fold change /veh OLFML3 (11715873_a_at) / RFU LOC100653217 /// NTM (11731650_a_at) / Fold change /veh LOC100653217 /// NTM (11731650_a_at) / RFU MAPK11 (11762145_a_at) / Fold change /veh MAPK11 (11762145_a_at) / RFU FIZ1 (11724087_x_at) / Fold change /veh FIZ1 (11724087_x_at) / RFU OASL (11726364_x_at) / Fold change /veh OASL (11726364_x_at) / RFU SOX15 (11748057_x_at) / Fold change /veh SOX15 (11748057_x_at) / RFU CD79A (11719716_a_at) / Fold change /veh CD79A (11719716_a_at) / RFU HIST1H1D (11736915_at) / Fold change /veh HIST1H1D (11736915_at) / RFU CASKIN2 (11723855_a_at) / Fold change /veh CASKIN2 (11723855_a_at) / RFU LOC730098 (11760151_x_at) / Fold change /veh LOC730098 (11760151_x_at) / RFU OR4N2 (11742367_at) / Fold change /veh OR4N2 (11742367_at) / RFU PRRT2 (11749266_a_at) / Fold change /veh PRRT2 (11749266_a_at) / RFU SNX32 (11753110_a_at) / Fold change /veh SNX32 (11753110_a_at) / RFU CDHR5 (11726645_a_at) / Fold change /veh CDHR5 (11726645_a_at) / RFU RCAN1 (11760418_a_at) / Fold change /veh RCAN1 (11760418_a_at) / RFU FAM167A (11723789_a_at) / Fold change /veh FAM167A (11723789_a_at) / RFU FAM26E (11764081_at) / Fold change /veh FAM26E (11764081_at) / RFU ISYNA1 (11749810_s_at) / Fold change /veh ISYNA1 (11749810_s_at) / RFU ACY1 (11761880_at) / Fold change /veh ACY1 (11761880_at) / RFU 11764098_at / Fold change /veh 11764098_at / RFU SAMD14 (11745864_x_at) / Fold change /veh SAMD14 (11745864_x_at) / RFU NPB (11741838_a_at) / Fold change /veh NPB (11741838_a_at) / RFU TMPRSS6 (11731388_a_at) / Fold change /veh TMPRSS6 (11731388_a_at) / RFU KRTAP10-2 (11738614_at) / Fold change /veh KRTAP10-2 (11738614_at) / RFU ARHGAP8 /// PRR5-ARHGAP8 (11727945_x_at) / Fold change /veh ARHGAP8 /// PRR5-ARHGAP8 (11727945_x_at) / RFU KRTAP5-7 /// NADSYN1 (11734609_at) / Fold change /veh KRTAP5-7 /// NADSYN1 (11734609_at) / RFU RASL12 (11751679_a_at) / Fold change /veh RASL12 (11751679_a_at) / RFU CDKN2B (11736163_a_at) / Fold change /veh CDKN2B (11736163_a_at) / RFU PRF1 (11729649_at) / Fold change /veh PRF1 (11729649_at) / RFU, ZNF638 /// ZNF638-IT1 / Fold change vs veh, ZNF638 /// ZNF638-IT1 / RFU, PANK3 / Fold change vs veh, PANK3 / RFU, SH3YL1 / Fold change vs veh, SH3YL1 / RFU, ZEB2 / Fold change vs veh, ZEB2 / RFU, NRIP1 / Fold change vs veh, NRIP1 / RFU, PTTG1IP / Fold change vs veh, PTTG1IP / RFU, CAPN2 / Fold change vs veh, CAPN2 / RFU, MED14 / Fold change vs veh, MED14 / RFU, SNORA58 / Fold change vs veh, SNORA58 / RFU, C1orf63 / Fold change vs veh, C1orf63 / RFU, LRRFIP1 / Fold change vs veh, LRRFIP1 / RFU, NDUFAF7 / Fold change vs veh, NDUFAF7 / RFU, SLC12A2 / Fold change vs veh, SLC12A2 / RFU, IBTK / Fold change vs veh, IBTK / RFU, ESF1 / Fold change vs veh, ESF1 / Fold change vs veh, TMEM50B / RFU, TAOK1 / Fold change vs veh, TAOK1 / RFU, ACBD3 / Fold change vs veh, ACBD3 / RFU, TMA16 / Fold change vs veh, TMA16 / RFU, RWDD3 / Fold change vs veh, RWDD3 / RFU, BCAT1 / Fold change vs veh, BCAT1 / RFU, EDEM3 / Fold change vs veh, EDEM3 / RFU, TMEM33 / Fold change vs veh, TMEM33 / RFU, WDR75 / Fold change vs veh, WDR75 / RFU, AHCTF1 / Fold change vs veh, AHCTF1 / RFU, TFRC / Fold change vs veh, TFRC / RFU, ZDHHC17 / Fold change vs veh, ZDHHC17 / RFU, NOM1 / Fold change vs veh, NOM1 / RFU, ARL8B / Fold change vs veh, ARL8B / RFU, ZBTB11 / Fold change vs veh, ZBTB11 / RFU, TAMM41 / Fold change vs veh, TAMM41 / RFU, KIAA1704 /// LOC100996395 / Fold change vs veh, KIAA1704 /// LOC100996395 / RFU, ING1 / Fold change vs veh, ING1 / RFU, TRMT61B / Fold change vs veh, TRMT61B / RFU, FUBP3 / Fold change vs veh, FUBP3 / RFU, TP53 / Fold change vs veh, TP53 / RFU, TNKS2 / Fold change vs veh, TNKS2 / RFU, ZFP14 / Fold change vs veh, ZFP14 / RFU, ACTR2 / Fold change vs veh, ACTR2 / RFU, PPP3R1 / Fold change vs veh, PPP3R1 / RFU, PIK3R1 / Fold change vs veh, PIK3R1 / RFU, HNRNPA1 / Fold change vs veh, HNRNPA1 / RFU, RNF170 / Fold change vs veh, RNF170 / RFU, ZNF28 / Fold change vs veh, ZNF28 / RFU, RNGTT / Fold change vs veh, RNGTT / RFU, OGT / Fold change vs veh, OGT / RFU, BRD1 / Fold change vs veh, BRD1 / RFU, MARS / Fold change vs veh, MARS / RFU, ZNF655 / Fold change vs veh, ZNF655 / RFU, FAHD1 / Fold change vs veh, FAHD1 / RFU, BDP1 / Fold change vs veh, BDP1 / RFU, LRRCC1 / Fold change vs veh, LRRCC1 / RFU, ARID1A / Fold change vs veh, ARID1A / RFU, ZNF146 / Fold change vs veh, ZNF146 / RFU, ZNF330 / Fold change vs veh, ZNF330 / RFU, GPN3 / Fold change vs veh, GPN3 / RFU, C9orf123 / Fold change vs veh, C9orf123 / RFU, N4BP2L2 / Fold change vs veh, N4BP2L2 / RFU, ARFIP1 / Fold change vs veh, ARFIP1 / RFU, FAM179B / Fold change vs veh, FAM179B / RFU, BCL10 / Fold change vs veh, BCL10 / RFU, UHRF1BP1L / Fold change vs veh, UHRF1BP1L / RFU, BET1 / Fold change vs veh, BET1 / RFU, CNOT2 / Fold change vs veh, CNOT2 / RFU, ZNF268 / Fold change vs veh, ZNF268 / Fold change vs veh, ZNF507 / RFU, DGCR2 / Fold change vs veh, DGCR2 / RFU, WDSUB1 / Fold change vs veh, WDSUB1 / Fold change vs veh, HSP90B1 /// MIR3652 / RFU, ADSS / Fold change vs veh, ADSS / RFU, GK / Fold change vs veh, GK / RFU, ZNF148 / Fold change vs veh, ZNF148 / RFU, TAF9 / Fold change vs veh, TAF9 / RFU, SLC1A5 / Fold change vs veh, SLC1A5 / RFU, SLMO2 / Fold change vs veh, SLMO2 / RFU, ABCC4 / Fold change vs veh, ABCC4 / RFU, LOC101060439 /// RAP1B / Fold change vs veh, LOC101060439 /// RAP1B / RFU, RFX7 / Fold change vs veh, RFX7 / RFU, GTPBP10 / Fold change vs veh, GTPBP10 / RFU, CNEP1R1 / Fold change vs veh, CNEP1R1 / RFU, BIVM-ERCC5 /// ERCC5 / Fold change vs veh, BIVM-ERCC5 /// ERCC5 / RFU, ILF3 / Fold change vs veh, ILF3 / RFU 11762660_at / Fold change /veh 11762660_at / RFU VCAN (11757783_s_at) / Fold change /veh VCAN (11757783_s_at) / RFU DDX43 (11728927_at) / Fold change /veh DDX43 (11728927_at) / RFU KRT8 (11758188_x_at) / Fold change /veh KRT8 (11758188_x_at) / RFU NKD1 (11759106_at) / Fold change /veh NKD1 (11759106_at) / RFU SRD5A1 (11742802_a_at) / Fold change /veh SRD5A1 (11742802_a_at) / RFU TPSAB1 /// TPSB2 (11721975_s_at) / Fold change /veh TPSAB1 /// TPSB2 (11721975_s_at) / RFU GSTM3 (11746129_a_at) / Fold change /veh GSTM3 (11746129_a_at) / RFU IL23R (11737362_x_at) / Fold change /veh IL23R (11737362_x_at) / RFU TMEM51 (11727254_a_at) / Fold change /veh TMEM51 (11727254_a_at) / RFU PIWIL2 (11732686_x_at) / Fold change /veh PIWIL2 (11732686_x_at) / RFU ORM1 (11744905_x_at) / Fold change /veh ORM1 (11744905_x_at) / RFU CCDC152 (11743942_at) / Fold change /veh CCDC152 (11743942_at) / RFU ECM1 (11717891_a_at) / Fold change /veh ECM1 (11717891_a_at) / RFU IL23R (11748794_a_at) / Fold change /veh IL23R (11748794_a_at) / RFU TNFAIP8L3 (11732012_x_at) / Fold change /veh TNFAIP8L3 (11732012_x_at) / RFU MBOAT4 (11741988_at) / Fold change /veh MBOAT4 (11741988_at) / RFU 11764193_at / Fold change /veh 11764193_at / RFU TMEM53 (11763286_at) / Fold change /veh TMEM53 (11763286_at) / RFU MAGEB2 (11727129_at) / Fold change /veh MAGEB2 (11727129_at) / RFU TMEM200A (11744735_a_at) / Fold change /veh TMEM200A (11744735_a_at) / RFU CCDC152 (11751479_a_at) / Fold change /veh CCDC152 (11751479_a_at) / RFU FAM211A (11726209_a_at) / Fold change /veh FAM211A (11726209_a_at) / RFU RGS16 (11746705_a_at) / Fold change /veh RGS16 (11746705_a_at) / RFU VCAN (11755009_s_at) / Fold change /veh VCAN (11755009_s_at) / RFU RHOB (11743442_s_at) / Fold change /veh RHOB (11743442_s_at) / RFU RGS16 (11720943_a_at) / Fold change /veh RGS16 (11720943_a_at) / RFU RGS16 (11720944_at) / Fold change /veh RGS16 (11720944_at) / RFU, VPS4B / Fold change vs veh, VPS4B / RFU, CREB1 / Fold change vs veh, CREB1 / RFU, DNAJC13 / Fold change vs veh, DNAJC13 / RFU, GNAQ / Fold change vs veh, GNAQ / RFU, CDK5R1 / Fold change vs veh, CDK5R1 / RFU, ZRANB3 / Fold change vs veh, ZRANB3 / RFU, CUL4A / Fold change vs veh, CUL4A / RFU, CCNY / Fold change vs veh, CCNY / RFU, UFL1 / Fold change vs veh, UFL1 / RFU, COG3 / Fold change vs veh, COG3 / RFU, DIAPH2 / Fold change vs veh, DIAPH2 / RFU, SKA2 / Fold change vs veh, SKA2 / RFU, AFF3 / Fold change vs veh, AFF3 / RFU, LMF1 / Fold change vs veh, LMF1 / RFU, IPO11 / Fold change vs veh, IPO11 / RFU, DFFB / Fold change vs veh, DFFB / RFU, FOXP1 / Fold change vs veh, FOXP1 / RFU, CARD8 / Fold change vs veh, CARD8 / RFU, STRN3 / Fold change vs veh, STRN3 / RFU, ADK / Fold change vs veh, ADK / RFU, RASSF2 / Fold change vs veh, RASSF2 / RFU, WIPF1 / Fold change vs veh, WIPF1 / RFU, LARP1B / Fold change vs veh, LARP1B / RFU, RASA1 / Fold change vs veh, RASA1 / RFU, RB1 / Fold change vs veh, RB1 / RFU, PPFIA1 / Fold change vs veh, PPFIA1 / RFU, MAT2A / Fold change vs veh, MAT2A / RFU, CCT5 / Fold change vs veh, CCT5 / RFU, WDR92 / Fold change vs veh, WDR92 / RFU, CUX1 / Fold change vs veh, CUX1 / RFU, TTC7A / Fold change vs veh, TTC7A / RFU, TMEM135 / Fold change vs veh, TMEM135 / RFU, DEPTOR / Fold change vs veh, DEPTOR / RFU, CPM / Fold change vs veh, CPM / RFU, DNAJB6 / Fold change vs veh, DNAJB6 / RFU, CACNA2D3 / Fold change vs veh, CACNA2D3 / RFU, DTX4 / Fold change vs veh, DTX4 / RFU, TFCP2 / Fold change vs veh, TFCP2 / RFU, GMCL1 /// GMCL1P1 / Fold change vs veh, GMCL1 /// GMCL1P1 / RFU, AEBP2 / Fold change vs veh, AEBP2 / RFU, SNHG1 /// SNORD22 /// SNORD25 /// SNORD26 /// SNORD27 /// SNORD28 /// SNORD29 /// SNORD31 / Fold change vs veh, SNHG1 /// SNORD22 /// SNORD25 /// SNORD26 /// SNORD27 /// SNORD28 /// SNORD29 /// SNORD31 / Fold change (Aza/veh), C12orf56 (ProbeSet 11735607_a_at) / Fold change (ACY-1035/veh), C12orf56 (ProbeSet 11735607_a_at) / Fold change (Aza/veh), FGFR1OP (ProbeSet 11751329_s_at) / Fold change (ACY-1035/veh), FGFR1OP (ProbeSet 11751329_s_at) / Fold change (Aza/veh), VPS36 (ProbeSet 11739960_a_at) / Fold change (ACY-1035/veh), VPS36 (ProbeSet 11739960_a_at) / RFU SYPL1 (11715823_x_at) / Fold change /veh SYPL1 (11715823_x_at) / RFU IGFBP7 (11715501_s_at) / Fold change /veh IGFBP7 (11715501_s_at) / RFU REEP3 (11722064_at) / Fold change /veh REEP3 (11722064_at) / RFU IGLL1 (11728026_x_at) / Fold change /veh IGLL1 (11728026_x_at): dose or concentration left out as unconfirmed
Details: MV-4-11 cells, 48 hours

Nc1ncn([C@@H]2O[C@H](CO)[C@@H](O)[C@H]2O)c(=O)n1 [azacitidine]
Fold change /veh PRRT2 (11749266_a_at): 0.89
